According to ChEMBL document CHEMBL1201862, “PubChem BioAssay data set” (2004):
Activity calls are given as the source filed them.

Assays:
cells = assay type: functional
[1] = biological target: T1, Heat shock factor protein 1 (Mus musculus, UniProt P38532); experiment: enhancement of HSF1-driven luciferase signal – cell-based, NIH3T3, luminescence, dose retest, confirmation (AID 435004); assay type: functional;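 further: stress induced by proteasome inhibitor MG132 added 30 min after compound; luciferase reporter driven by HSF1 response element in NIH3T3 cells; actives raise luminescence as potentiators of the MG132 stress response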
T1 sequence (P38532 whole entry): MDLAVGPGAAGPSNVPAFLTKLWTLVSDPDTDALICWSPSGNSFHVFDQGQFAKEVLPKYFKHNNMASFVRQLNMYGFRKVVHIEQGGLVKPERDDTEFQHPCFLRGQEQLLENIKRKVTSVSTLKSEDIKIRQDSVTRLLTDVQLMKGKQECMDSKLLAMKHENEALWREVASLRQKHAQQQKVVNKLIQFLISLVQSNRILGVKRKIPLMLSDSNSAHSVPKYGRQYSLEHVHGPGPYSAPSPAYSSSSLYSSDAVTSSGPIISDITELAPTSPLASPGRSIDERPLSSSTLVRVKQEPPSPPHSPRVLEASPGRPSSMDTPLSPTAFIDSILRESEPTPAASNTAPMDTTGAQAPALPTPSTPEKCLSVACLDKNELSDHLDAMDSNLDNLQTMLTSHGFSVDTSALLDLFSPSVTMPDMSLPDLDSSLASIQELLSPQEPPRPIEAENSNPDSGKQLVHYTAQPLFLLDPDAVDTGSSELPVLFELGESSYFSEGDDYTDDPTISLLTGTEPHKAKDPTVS

[2] = biological target: T2, Zinc finger protein mex-5 (Caenorhabditis elegans, UniProt Q9XUB2); experiment: potency of MEX-5 RNA-binding blockers – biochemical, C. elegans, fluorescence polarization, dose response (AID 1960)
T2 sequence (Q9XUB2 whole entry): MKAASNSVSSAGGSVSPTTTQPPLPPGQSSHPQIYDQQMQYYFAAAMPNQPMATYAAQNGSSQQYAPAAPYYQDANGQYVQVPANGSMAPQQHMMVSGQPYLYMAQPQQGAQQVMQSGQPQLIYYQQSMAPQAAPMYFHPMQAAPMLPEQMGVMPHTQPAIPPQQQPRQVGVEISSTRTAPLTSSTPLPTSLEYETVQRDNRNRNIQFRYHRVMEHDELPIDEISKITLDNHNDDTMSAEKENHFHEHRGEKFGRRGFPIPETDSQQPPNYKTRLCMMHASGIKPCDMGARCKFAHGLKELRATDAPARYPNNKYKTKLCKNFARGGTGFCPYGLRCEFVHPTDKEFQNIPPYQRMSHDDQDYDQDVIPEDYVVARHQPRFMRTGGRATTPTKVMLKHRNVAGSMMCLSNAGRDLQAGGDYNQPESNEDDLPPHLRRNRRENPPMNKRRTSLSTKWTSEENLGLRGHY

[3] = biological target: T3, RNA-binding protein pos-1 (Caenorhabditis elegans, UniProt G5EF15); experiment: disruptors of C. elegans POS-1 RNA interaction – biochemical, fluorescence polarization, dose response (AID 1964);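 further: purified POS-1 fused to maltose binding protein made in E. coli; potency of compounds blocking POS-1 binding to fluorescent RNA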
T3 sequence (G5EF15 whole entry): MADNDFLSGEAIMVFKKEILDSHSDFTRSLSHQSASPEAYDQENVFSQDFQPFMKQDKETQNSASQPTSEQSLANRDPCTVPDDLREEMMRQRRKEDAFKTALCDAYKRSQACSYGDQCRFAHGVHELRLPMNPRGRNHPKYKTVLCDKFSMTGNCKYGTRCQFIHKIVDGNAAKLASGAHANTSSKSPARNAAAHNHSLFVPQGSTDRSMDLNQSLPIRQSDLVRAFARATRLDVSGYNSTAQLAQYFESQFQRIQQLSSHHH

Cytochrome P450 2C9 = Cytochrome P450 2C9 (Homo sapiens, UniProt P11712)
Cytochrome P450 3A4 = Cytochrome P450 3A4 (Homo sapiens, UniProt P08684);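 further: CYP3A4 tested as one member of a cytochrome P450 panel screen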
Cytochrome P450 2C19 = Cytochrome P450 2C19 (Homo sapiens, UniProt P33261); experiment: Cytochrome panel assay with activity outcomes. Panel member name: p450-cyp2c19 Compounds with AC50 equal or less than 10 uM are considered active; assay type: functional; settings: read-out: AC50
Cytochrome P450 1A2 = biological target: T4, Cytochrome P450 1A2 (Homo sapiens, UniProt P05177);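 further: PubChem cytochrome P450 panel assay, CYP1A2 panel member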
T4 sequence (P05177 whole entry): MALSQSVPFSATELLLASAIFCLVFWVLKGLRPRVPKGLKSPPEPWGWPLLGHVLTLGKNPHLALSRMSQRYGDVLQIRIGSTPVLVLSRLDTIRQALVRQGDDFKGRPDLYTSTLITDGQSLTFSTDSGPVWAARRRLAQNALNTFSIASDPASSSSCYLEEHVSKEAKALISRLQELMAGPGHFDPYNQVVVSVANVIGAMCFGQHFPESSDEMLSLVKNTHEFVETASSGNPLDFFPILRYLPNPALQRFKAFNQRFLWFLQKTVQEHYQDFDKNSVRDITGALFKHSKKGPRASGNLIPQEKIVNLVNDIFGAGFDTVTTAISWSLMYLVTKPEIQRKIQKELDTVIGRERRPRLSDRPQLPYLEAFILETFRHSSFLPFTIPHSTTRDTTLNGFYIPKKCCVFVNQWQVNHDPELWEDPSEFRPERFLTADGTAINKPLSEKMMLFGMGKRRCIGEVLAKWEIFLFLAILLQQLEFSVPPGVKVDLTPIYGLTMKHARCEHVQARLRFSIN

[4] = Luminescence Cell-Based Dose Retest to Confirm Inhibitors of Cancer Stem Cells. [Related pubchem assays (depositor defined):AID2717, AID2721]; assay type: functional; settings: Homo sapiens
Cytochrome P450 2D6 = Cytochrome P450 2D6 (Homo sapiens, UniProt P10635);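 further: CYP2D6 member of a cytochrome P450 panel assay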
Chain of Cytochrome P450 2D6 (P10635 whole entry): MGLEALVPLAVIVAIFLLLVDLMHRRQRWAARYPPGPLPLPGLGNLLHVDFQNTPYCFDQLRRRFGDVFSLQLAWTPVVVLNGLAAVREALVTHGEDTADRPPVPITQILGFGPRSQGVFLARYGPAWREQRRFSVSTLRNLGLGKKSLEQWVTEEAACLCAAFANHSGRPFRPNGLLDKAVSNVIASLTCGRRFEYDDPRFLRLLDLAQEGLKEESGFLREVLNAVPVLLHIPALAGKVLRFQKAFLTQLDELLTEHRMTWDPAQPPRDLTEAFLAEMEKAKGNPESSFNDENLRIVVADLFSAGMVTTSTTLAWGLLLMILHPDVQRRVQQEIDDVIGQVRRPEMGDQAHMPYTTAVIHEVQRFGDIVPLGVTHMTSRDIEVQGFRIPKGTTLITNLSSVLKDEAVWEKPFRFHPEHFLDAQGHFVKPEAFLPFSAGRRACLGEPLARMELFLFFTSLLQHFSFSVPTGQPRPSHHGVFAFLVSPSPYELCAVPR

Chain of Cytochrome P450 3A4 (P08684 whole entry): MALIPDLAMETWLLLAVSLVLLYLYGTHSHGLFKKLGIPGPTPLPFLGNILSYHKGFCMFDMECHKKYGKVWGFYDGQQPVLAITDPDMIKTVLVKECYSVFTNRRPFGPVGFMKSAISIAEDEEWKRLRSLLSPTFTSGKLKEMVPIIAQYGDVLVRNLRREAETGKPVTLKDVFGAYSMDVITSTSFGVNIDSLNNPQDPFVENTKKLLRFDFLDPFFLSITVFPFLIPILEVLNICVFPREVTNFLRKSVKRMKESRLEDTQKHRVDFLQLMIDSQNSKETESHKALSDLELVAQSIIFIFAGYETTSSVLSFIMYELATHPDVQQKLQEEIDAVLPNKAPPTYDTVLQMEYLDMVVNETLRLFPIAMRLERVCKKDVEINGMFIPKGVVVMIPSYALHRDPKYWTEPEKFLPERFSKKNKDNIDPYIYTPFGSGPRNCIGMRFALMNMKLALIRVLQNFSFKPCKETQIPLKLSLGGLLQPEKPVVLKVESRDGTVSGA
Chain of Cytochrome P450 2C19 (P33261 whole entry): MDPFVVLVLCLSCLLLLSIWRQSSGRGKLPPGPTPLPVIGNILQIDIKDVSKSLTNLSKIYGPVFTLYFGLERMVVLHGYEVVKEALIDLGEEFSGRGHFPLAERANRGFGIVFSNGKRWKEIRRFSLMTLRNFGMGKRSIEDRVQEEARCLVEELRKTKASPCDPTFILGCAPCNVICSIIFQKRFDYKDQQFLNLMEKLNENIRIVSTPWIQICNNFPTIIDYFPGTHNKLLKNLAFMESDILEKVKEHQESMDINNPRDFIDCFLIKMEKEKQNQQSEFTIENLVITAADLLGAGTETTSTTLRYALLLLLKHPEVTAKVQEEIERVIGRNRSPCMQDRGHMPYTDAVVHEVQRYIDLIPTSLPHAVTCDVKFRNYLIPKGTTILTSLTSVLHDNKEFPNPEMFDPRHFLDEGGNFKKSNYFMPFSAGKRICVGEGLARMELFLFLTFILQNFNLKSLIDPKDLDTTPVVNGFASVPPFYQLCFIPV
Chain of Cytochrome P450 2C9 (P11712 whole entry): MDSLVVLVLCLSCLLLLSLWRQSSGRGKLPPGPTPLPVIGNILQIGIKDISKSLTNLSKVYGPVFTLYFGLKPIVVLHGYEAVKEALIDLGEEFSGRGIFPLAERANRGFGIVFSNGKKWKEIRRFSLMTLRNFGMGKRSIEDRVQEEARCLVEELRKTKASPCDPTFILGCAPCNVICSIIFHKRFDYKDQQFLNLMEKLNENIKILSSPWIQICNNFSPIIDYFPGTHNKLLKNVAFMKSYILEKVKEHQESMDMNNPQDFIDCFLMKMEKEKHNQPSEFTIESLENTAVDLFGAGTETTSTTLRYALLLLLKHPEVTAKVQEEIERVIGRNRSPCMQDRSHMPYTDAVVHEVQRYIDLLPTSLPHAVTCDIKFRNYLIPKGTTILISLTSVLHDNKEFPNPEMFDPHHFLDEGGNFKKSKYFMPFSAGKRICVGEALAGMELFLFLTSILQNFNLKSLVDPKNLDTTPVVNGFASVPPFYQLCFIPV

CCOC(=O)COc1cc(O)c2c(=O)cc(-c3ccccc3)oc2c1
IC50 (cells): 0.86 µM (active)

O=C(NC(CO)(CO)CO)c1coc(=O)c(Br)c1
EC50 [1]: > 260 µM (inactive)

COc1ccc(C2C(C#N)=C(N)OC3=C2C(=O)CC(C)(C)C3)cc1Cn1cc([N+](=O)[O-])cn1 (stereo not given)
EC50 [2]: > 300 µM (not active) | EC50 [3]: > 300 µM (not active)

O=C(Nc1cccc([N+](=O)[O-])c1)c1ccc(CSc2ccccc2)cc1
AC50 (Cytochrome P450 2C9): 0.562 µM (inconclusive) | AC50 (Cytochrome P450 3A4): 20 µM (inconclusive) | AC50 (Cytochrome P450 2C19): 14.1 µM (inconclusive)

CC#C[C@]1(O)CC[C@H]2[C@@H]3CCC4=CC(=O)CCC4=C3[C@H](c3ccc(N(C)C)cc3)C[C@@]21C
AC50 (Cytochrome P450 1A2): 25.1 µM (inconclusive)

CCCCCCSc1cccc(-c2nc3ccc(Cl)cn3c2NCc2ccccc2)c1
AC50 [4]: 1.55 µM (active)

Cc1c(NC(=O)/C=C/c2cn(-c3ccccc3)nc2-c2ccc(F)cc2)c(=O)n(-c2ccccc2)n1C
AC50 (Cytochrome P450 2C9): 20 µM (inconclusive) | AC50 (Cytochrome P450 1A2): 28.2 µM (inconclusive) | AC50 (Cytochrome P450 3A4): 25.1 µM (inconclusive)

CC1CCCN(c2ccc(C(=O)N3CCC4(CC3)OCCO4)cc2[N+](=O)[O-])C1 (stereo not given)
AC50 [4]: 4.55 µM (active)

CCN1CCN(c2cc(C(C)(C)C)nc3c(-c4ccccc4)c(C)nn23)CC1
AC50 [4]: 5.68 µM (active)

Cc1ccnc(NC(=O)COc2ccc3c(c2)CCC3)c1
IC50 (cells): 24.5 µM (active)

O=C(NCc1ccccn1)C1Nc2ccc(C(F)(F)F)cc2C2C=CCC12 (stereo not given)
EC50 [2]: > 300 µM (not active) | EC50 [3]: > 300 µM (not active)

CS(=O)(=O)N1CCC[C@@]2(CCN(Cc3nccs3)C2)C1
AC50 (Cytochrome P450 3A4): 12.6 µM (inconclusive) | AC50 (Cytochrome P450 2D6): 39.8 µM (inconclusive) | AC50 (Cytochrome P450 2C19): 39.8 µM (inconclusive)

COc1ccc(C2C(C#N)=C(N)OC3=C2C(=O)CC(C)(C)C3)cc1Cn1nc(C)c([N+](=O)[O-])c1C (stereo not given)
EC50 [2]: > 300 µM (not active) | EC50 [3]: > 300 µM (not active)

CC(C)c1cccc(C(C)C)c1OC(=O)[C@H]1OC(c2ccc(Br)cc2)=C[C@@H]1c1ccc(Br)cc1
AC50 [4]: 3.58 µM (active)

COc1ccc(CCNc2cc(C)nc3c(-c4ccc(Cl)cc4)c(C)nn23)cc1OC
AC50 [4]: 2.88 µM (active)

O=C(CCCC1=NS(=O)(=O)c2ccccc2N1)N1CCC2(CC1)OCCO2
AC50 (Cytochrome P450 2C9): 25.1 µM (inconclusive) | AC50 (Cytochrome P450 3A4): 35.5 µM (inconclusive) | AC50 (Cytochrome P450 2C19): 17.8 µM (inconclusive)

CCc1cc2c(nc1CC)CCN(CC/C(C)=N/OC[C@@H](O)COCc1ccco1)C2
AC50 (Cytochrome P450 3A4): 3.16 µM (inconclusive) | AC50 (Cytochrome P450 2D6): 3.98 µM (inconclusive)

CCOC(=O)n1c(=O)n(Cc2ccccc2Cl)c2ccccc21
AC50 (Cytochrome P450 3A4): 15.8 µM (inconclusive) | AC50 (Cytochrome P450 2D6): 28.2 µM (inconclusive)

CCOC(=O)CC1C(=O)NCCN1S(=O)(=O)c1ccccc1Cl (stereo not given)
AC50 (Cytochrome P450 2C9): 0.00562 µM (inconclusive) | AC50 (Cytochrome P450 3A4): 14.1 µM (inconclusive) | AC50 (Cytochrome P450 2D6): 0.891 µM (inconclusive) | AC50 (Cytochrome P450 2C19): 11.2 µM (inconclusive)

COc1ccc(-c2sc3ccccc3c2/C=C/c2ccc(N)cc2)cc1
AC50 [4]: 3.98 µM (active)

CCS(=O)(=O)c1ccc(O)c(NC(=O)Nc2ccccc2)c1
AC50 (Cytochrome P450 2C9): 7.08 µM (inconclusive) | AC50 (Cytochrome P450 1A2): 20 µM (inconclusive) | AC50 (Cytochrome P450 2C19): 39.8 µM (inconclusive)

CCO/C(O)=C/C(C)=N/c1cc(C)nn1-c1ccccc1
EC50 [1]: > 260 µM (inactive)

CN1CCN(c2ccc([N+](=O)[O-])c(NCc3ccco3)c2)CC1
AC50 [4]: 0.512 µM (active)

O=c1[nH][nH]c2cc(=O)n(-c3ccc(Cl)cc3)nc12
EC50 [2]: 4.09 µM (active) | EC50 [3]: 15.4 µM (active)

CCCCC/N=c1\ccn(Cc2ccccc2)c2ccccc12 [CP-339818]
AC50 (Cytochrome P450 1A2): 25.1 µM (inconclusive) | AC50 (Cytochrome P450 3A4): 15.8 µM (inconclusive)
